Read-outs that look alike come from different tables or passages of the source. Some results are limits rather than exact numbers.

As usually defined, the IC50 is the point on the concentration scale where inhibition reaches its midpoint. The inhibition is the percentage by which the read-out fell short of the control. A high value points to a response far below the control. As a reminder, the Ki is the dissociation constant of the complex between target and ligand, obtained from inhibition or displacement.

The target in one assay is T1, α-Mannosidase (Homo sapiens, UniProt O00754).
T1 construct: endogenous in cells; host or cells: fibroblasts of Gaucher patients (type 1, 2, 3)
T1 sequence (O00754 50-1011): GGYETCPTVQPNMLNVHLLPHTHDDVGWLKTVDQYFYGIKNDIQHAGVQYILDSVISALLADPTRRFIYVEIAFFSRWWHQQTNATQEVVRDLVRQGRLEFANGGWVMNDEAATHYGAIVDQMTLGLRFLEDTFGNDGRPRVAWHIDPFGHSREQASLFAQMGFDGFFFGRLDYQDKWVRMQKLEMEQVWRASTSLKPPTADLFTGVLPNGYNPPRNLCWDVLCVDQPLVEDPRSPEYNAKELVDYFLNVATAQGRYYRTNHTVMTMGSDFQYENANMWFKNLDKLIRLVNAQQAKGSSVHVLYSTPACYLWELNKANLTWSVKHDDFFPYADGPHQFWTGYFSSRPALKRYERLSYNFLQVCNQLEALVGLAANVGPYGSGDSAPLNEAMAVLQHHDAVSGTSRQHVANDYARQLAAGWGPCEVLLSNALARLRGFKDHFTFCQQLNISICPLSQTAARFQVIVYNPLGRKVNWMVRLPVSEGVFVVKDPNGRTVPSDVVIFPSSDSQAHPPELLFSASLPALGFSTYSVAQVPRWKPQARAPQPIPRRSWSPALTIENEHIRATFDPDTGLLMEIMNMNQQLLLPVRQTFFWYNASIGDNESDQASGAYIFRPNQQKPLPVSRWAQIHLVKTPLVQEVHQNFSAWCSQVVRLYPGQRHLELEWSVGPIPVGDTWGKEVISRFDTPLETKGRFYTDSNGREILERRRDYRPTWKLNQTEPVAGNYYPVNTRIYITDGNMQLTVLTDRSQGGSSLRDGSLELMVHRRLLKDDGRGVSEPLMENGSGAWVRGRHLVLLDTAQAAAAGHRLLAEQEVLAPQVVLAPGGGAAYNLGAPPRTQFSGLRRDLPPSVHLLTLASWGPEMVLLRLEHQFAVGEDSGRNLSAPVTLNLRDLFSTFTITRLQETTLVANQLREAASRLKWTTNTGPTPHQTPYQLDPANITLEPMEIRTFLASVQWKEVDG
Put plainly: α-Mannosidase activity in Gaucher fibroblasts. The assay is classed as cell-based. How it is done:
(§1) The tests were carried out under the conditions described in: Sawkar, A. R.; Cheng, W.-C.; Beutler, E.; Wong, C.-H.; Balch, W. E.; Kelly, J. W. Chemical chaperones increase the cellular activity of N370S beta-glucosidase: a therapeutic strategy for Gaucher's disease. Proc. Natl. Acad. Sci. U.S.A. 2002, 99, 15428-15433.

Another assay deals with maltase. Nature of the assay: Inhibition of rat intestinal maltase. The class given is biochemical. Conditions: rat intestine; read-out: IC50 α-glucosidase maltase. The text has this:
(§2) The α-glucosidases of rice and of yeast, as well as the β-glucosidases of sweet almond and Caldocellum saccharolyticum are obtained from Sigma Chemical Co. ‘Brush border’ membranes prepared from rat small intestine according to Kessler's method (Kessler, M.; Acuto, O.; Strelli, C.; Murer, H.; Semenza, G. A. Biochem. Biophys. Acta 1978, 506, 136) were used as a source of intestinal maltase, sucrase and isomaltase. The activities of rice α-glucosidase as well as of the intestinal glucosidases were determined using an appropriate disaccharide as substrate. The D-glucose thus released was assayed by colorimetry using the Wako glucose B-test (Wako Pure Chemical Ind., Japan). The activities on the other glycosidases were determined using the appropriate p-nitrophenyl glycoside as a substrate with the optimum pH of each enzyme. The reaction is stopped by adding 400 mM Na2CO3. The p-nitrophenol thus released was assayed by spectrophotometry at 400 nm. For the β-glucocerebrosidase, the technique used is that described in Kato, A.; Kato, N.; Kano, E.; Adachi, I.; Ikeda, K.; Yu, L.; Okamoto, T.; Banba, Y.; Ouchi, H.; Takahata, H.; Asano, N. Biological properties of D- and L-1-deoxyazasugars. J. Med. Chem. 2005, 48, 2036-2044.

A further assay has as its target T2, rice α-glucosidase (Oryza sativa subsp. japonica, UniProt Q653V7).
T2 construct: purchased Sigma Chemical Co
Nature of the assay: Inhibition of rice α-glucosidase (disaccharide substrate, glucose colorimetry). Conditions: rice enzyme. The assay is classed as biochemical.
Text: as §2

For assay [1], the target named is T3, β-glucosidase Caldocellum saccharolyticum (Caldicellulosiruptor saccharolyticus, UniProt P10482).
T3 construct: purchased Sigma Chemical Co
T3 sequence (P10482 whole entry): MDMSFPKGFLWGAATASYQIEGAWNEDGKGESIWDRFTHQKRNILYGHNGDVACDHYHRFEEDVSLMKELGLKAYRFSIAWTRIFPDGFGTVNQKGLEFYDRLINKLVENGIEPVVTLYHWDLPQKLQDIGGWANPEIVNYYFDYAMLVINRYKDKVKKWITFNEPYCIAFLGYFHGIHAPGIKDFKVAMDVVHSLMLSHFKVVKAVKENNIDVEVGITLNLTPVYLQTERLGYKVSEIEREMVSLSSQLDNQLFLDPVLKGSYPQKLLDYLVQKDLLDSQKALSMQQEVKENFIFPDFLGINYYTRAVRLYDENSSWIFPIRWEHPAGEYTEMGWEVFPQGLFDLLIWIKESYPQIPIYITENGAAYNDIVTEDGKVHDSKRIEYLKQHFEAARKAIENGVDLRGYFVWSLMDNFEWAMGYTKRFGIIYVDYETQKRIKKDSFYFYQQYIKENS
Nature of the assay: Inhibition of Caldocellum saccharolyticum β-glucosidase. The class given is biochemical.
Text: as §2

The subject of assay [2] is other lysosomal glycosidases. Put plainly: Effects on other lysosomal glycosidases in Gaucher fibroblasts. The assay is classed as cell-based, human. Conditions: for Effects on the activity of other glycosidases: Gaucher fibroblasts, Table 2.
Another assay addresses T4, α-Glucosidase (Homo sapiens, UniProt P10253).
T4 construct: endogenous in cells; host or cells: fibroblasts of Gaucher patients (type 1, 2, 3)
Nature of the assay: α-Glucosidase activity in Gaucher fibroblasts. The class given is cell-based. The procedure: as §1

A further assay deals with T5, isomaltase (Rattus norvegicus, UniProt P23739).
T5 construct: from tissue; host or cells: rat small intestine brush border membranes
T5 sequence (P23739 1-1013 limits assumed): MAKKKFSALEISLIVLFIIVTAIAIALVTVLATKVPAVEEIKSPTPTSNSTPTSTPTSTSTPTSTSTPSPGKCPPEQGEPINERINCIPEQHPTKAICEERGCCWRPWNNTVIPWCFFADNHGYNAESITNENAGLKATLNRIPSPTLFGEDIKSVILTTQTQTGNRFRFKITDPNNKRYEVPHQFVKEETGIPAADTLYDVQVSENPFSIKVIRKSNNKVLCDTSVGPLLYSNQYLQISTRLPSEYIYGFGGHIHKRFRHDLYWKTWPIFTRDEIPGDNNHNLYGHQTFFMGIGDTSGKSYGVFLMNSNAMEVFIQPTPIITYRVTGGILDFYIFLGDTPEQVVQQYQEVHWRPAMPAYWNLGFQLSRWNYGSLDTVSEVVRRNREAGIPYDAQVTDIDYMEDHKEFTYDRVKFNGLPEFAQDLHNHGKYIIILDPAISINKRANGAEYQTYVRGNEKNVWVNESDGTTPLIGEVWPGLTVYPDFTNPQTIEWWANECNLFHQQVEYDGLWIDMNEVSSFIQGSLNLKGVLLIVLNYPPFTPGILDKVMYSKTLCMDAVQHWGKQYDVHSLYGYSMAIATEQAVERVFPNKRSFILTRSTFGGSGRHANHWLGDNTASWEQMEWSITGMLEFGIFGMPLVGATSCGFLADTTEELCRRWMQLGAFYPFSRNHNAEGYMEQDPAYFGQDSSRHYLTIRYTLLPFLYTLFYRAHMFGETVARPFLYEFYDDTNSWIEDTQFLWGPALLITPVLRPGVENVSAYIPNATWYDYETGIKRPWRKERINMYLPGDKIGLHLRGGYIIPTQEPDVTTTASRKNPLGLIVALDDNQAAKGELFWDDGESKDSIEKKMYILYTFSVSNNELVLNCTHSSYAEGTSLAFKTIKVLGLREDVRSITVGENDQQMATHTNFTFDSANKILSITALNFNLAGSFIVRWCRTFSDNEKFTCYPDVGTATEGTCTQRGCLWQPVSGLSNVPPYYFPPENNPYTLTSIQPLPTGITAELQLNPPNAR
T5 sequence (P23739 1014-1841 limits assumed): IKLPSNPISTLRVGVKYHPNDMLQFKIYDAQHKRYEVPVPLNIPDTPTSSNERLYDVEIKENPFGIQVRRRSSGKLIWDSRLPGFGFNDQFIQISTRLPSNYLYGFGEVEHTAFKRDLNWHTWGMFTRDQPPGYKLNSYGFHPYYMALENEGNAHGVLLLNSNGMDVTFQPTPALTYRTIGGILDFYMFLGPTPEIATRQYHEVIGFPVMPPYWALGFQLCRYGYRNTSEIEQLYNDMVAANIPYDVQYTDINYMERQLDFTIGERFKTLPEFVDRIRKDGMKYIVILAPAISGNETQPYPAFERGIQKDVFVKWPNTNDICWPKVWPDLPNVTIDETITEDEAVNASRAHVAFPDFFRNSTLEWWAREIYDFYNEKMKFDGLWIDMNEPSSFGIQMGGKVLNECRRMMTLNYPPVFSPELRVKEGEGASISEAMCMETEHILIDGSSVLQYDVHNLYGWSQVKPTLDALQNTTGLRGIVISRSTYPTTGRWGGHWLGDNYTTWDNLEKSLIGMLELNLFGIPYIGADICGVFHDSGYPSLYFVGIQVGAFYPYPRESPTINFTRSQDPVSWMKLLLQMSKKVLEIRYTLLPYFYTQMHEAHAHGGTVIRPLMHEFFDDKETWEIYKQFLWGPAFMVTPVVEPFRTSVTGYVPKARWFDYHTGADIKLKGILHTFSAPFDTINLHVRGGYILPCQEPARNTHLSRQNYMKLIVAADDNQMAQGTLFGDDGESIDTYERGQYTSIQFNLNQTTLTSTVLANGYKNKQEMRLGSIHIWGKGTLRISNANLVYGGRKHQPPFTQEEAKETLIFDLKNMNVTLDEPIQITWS
Put plainly: Inhibition of rat intestinal isomaltase. The class given is biochemical. To be noted: rat intestine; read-out: IC50 α-glucosidase isomaltase.
Text: as §2

Another assay deals with T6, sucrase (Rattus norvegicus, UniProt P23739).
T6 construct: from tissue; host or cells: rat small intestine brush border membranes
T6 sequence (P23739 1-1013 limits assumed): as the sequence (P23739 1-1013 limits assumed) above
T6 sequence (P23739 1014-1841 limits assumed): as the sequence (P23739 1014-1841 limits assumed) above
Nature of the assay: Inhibition of rat intestinal sucrase. The assay is classed as biochemical. Conditions: rat intestine; read-out: IC50 α-glucosidase sucrase.
Text: as §2

For assay [3], the target named is β-glucosidase sweet almond. Nature of the assay: Inhibition of sweet almond β-glucosidase. The class given is biochemical.
Text: as §2

A further assay concerns α-glucosidases. Put plainly: Activity on the different α-glucosidases tested. The assay is classed as biochemical.
Text: as §2

Assay [4] deals with β-glucocerebrosidase. Nature of the assay: Intracellular β-glucocerebrosidase activity in type 1 Gaucher fibroblasts. The class given is cell-based, human. To be noted: factor of residual β-glucocerebrosidase activity, 10 nM.
For assay [5], the system named is human β-glucocerebrosidase. Nature of the assay: Intracellular β-glucocerebrosidase activity in fibroblasts of Gaucher patients (type 1, 2 or 3). The assay is classed as cell-based. Conditions: fibroblasts type 1, 2 or 3; very low quantities.
For assay [6], the system named is β-glucocerebrosidase. Nature of the assay: Intracellular β-glucocerebrosidase activity in type 3 Gaucher fibroblasts. The class given is cell-based, human. To be noted: factor of residual β-glucocerebrosidase activity, 10 nM.
Assay [7] addresses T7, human β-glucocerebrosidase (Homo sapiens, UniProt P04062).
T7 sequence (P04062 40-536): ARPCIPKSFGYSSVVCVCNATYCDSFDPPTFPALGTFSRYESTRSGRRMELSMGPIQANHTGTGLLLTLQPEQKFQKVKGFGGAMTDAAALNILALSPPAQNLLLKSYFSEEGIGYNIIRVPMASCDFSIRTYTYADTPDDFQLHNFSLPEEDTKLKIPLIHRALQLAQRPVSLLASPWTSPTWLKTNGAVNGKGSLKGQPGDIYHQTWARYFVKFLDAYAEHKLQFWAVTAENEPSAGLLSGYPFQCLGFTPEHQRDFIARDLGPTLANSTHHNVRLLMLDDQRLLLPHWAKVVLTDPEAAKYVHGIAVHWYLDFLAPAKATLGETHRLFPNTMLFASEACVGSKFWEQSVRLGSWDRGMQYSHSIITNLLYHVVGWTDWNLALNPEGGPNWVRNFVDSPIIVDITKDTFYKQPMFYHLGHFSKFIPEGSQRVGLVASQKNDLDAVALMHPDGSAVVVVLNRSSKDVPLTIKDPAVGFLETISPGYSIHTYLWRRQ
Nature of the assay: Inhibition tests on human β-glucocerebrosidase. The class given is biochemical. To be noted: for IC50: read-out: IC50 β-glucocérébrosidase.

Setting [8] is: type 2 Gaucher fibroblasts, 50 μM.

T2 sequence (Q653V7 34-885): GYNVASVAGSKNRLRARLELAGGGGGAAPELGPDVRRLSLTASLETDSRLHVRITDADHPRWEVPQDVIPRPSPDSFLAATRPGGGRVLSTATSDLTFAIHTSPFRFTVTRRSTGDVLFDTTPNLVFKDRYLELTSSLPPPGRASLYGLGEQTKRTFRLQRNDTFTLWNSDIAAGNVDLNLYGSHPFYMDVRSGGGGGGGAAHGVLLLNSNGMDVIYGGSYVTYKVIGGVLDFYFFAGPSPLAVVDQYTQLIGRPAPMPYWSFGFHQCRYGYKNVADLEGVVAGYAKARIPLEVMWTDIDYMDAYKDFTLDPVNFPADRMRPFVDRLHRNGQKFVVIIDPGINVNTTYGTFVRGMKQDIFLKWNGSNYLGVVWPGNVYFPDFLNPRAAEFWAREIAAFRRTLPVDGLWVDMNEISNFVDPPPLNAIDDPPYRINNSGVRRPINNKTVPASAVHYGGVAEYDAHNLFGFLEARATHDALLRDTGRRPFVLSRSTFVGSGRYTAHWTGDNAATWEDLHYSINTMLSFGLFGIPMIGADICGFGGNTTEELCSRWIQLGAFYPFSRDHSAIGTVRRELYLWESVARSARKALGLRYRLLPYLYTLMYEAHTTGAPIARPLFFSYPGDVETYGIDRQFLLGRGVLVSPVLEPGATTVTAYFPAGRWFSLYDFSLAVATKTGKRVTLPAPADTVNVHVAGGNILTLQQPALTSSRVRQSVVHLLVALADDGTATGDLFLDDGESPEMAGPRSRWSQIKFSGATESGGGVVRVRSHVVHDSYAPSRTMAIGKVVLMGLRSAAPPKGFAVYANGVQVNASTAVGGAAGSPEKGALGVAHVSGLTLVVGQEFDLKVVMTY

As to `CCCCCCCCCN1C[C@H](O)[C@@H](O)[C@H](O)[C@H]1CO` [2′, N-nonyl-1-deoxynojirimycin, reference compound], the α-Mannosidase inhibition result is listed as “slight inhibition” at α-Mannosidase (type 1 Gaucher fibroblasts), “slight inhibition” on α-Mannosidase (setting [8]) and “no inhibition” at α-Mannosidase (type 3 Gaucher fibroblasts). The 50% inhibitory concentration (IC50) is 1.3 µM on maltase; 0.08 µM on rice α-glucosidase; 80 µM in assay [1]; 0.23 µM at isomaltase; 0.66 µM on sucrase; 150 µM in assay [3]. The “Effects on the activity of other glycosidases” value in assay [2] is reported as “Marked effects”. Further, at α-Glucosidase (type 1 Gaucher fibroblasts, 50 μM), 50 µM produced 70% inhibition. The α-Glucosidase inhibition result at α-Glucosidase (setting [8]) and on α-Glucosidase (type 3 Gaucher fibroblasts) was “significant inhibition” in each case.
Consider `CCCCCCCCC[C@H]1NC[C@@H](O)[C@H](O)[C@H]1O` [Compound 1′a, α-1-C-nonyliminoxylitol], for which the “activity on the different α-glucosidases tested” value in the assay on α-glucosidases was “no activity”. The α-Mannosidase inhibition entry on α-Mannosidase (type 1-3 Gaucher fibroblasts) is listed as “no inhibition”. In addition, the “Increase in the enzymatic activity (type 1 fibroblasts)” value with β-glucocerebrosidase [4] is reported as 1.8; in the assay on β-glucocerebrosidase [4] (listed as drawing 105), “×1.8 to 10 nM”. The IC50 is over 1000 µM on maltase; over 1000 µM against rice α-glucosidase; 800 µM in assay [1]; over 1000 µM at isomaltase; 0.0068 µM in [7] (human enzyme); over 1000 µM at sucrase. In [3], this compound showed a half-inhibitory concentration (IC50) of 1.9 µM. In assay [5], the “residual enzymatic activity of human β-glucocerebrosidase” value is recorded as “double”. The “action on other lysosomal glycosidases” value in assay [2] (10 nM) is reported as “without inhibiting the action of other lysosomal glycosidases”. The “Effects on the activity of other glycosidases” value in assay [2] was “No effect”. In addition, the α-Glucosidases inhibition entry at α-Glucosidase (type 1-3 Gaucher fibroblasts) is reported as “no inhibition”. In addition, the “Increase in the enzymatic activity (type 3 fibroblasts)” value was 1.9 with β-glucocerebrosidase [6] and “×1.9 to 10 nM” in the assay on β-glucocerebrosidase [6] (listed as drawing 105). Further, the “times more active than N-nonyl-1-deoxynojirimycin 2′” value in [7] (human β-glucocerebrosidase) is recorded as 150 times. Further, the Ki in assay [7] (read-out: inhibition constant (Ki) human β-glucocerebrosidase) came to 0.002 µM.
`CCCCCCCCCCCC[C@H]1NC[C@@H](O)[C@H](O)[C@H]1O` [Compound 1′b]: the Ki in [7] (human enzyme, Table 1, read-out: value of Ki β-glucocérébrosidase (in brackets)) turned out to be 0.031 µM. For the same compound, the IC50 in [7] (human enzyme) is 0.012 µM.
